According to ChEMBL document CHEMBL6071166, “Maduraflavacins A-E, Unusual Phenyl Polyene Metabolites Produced by a Rare Marine-Derived Actinomadura sp” (2024):
Active and inactive are the calls of the source. No cut-off for these calls is given here.

Experiments:
Staphylococcus aureus [1] = test: Antibacterial activity against Staphylococcus aureus Sau 16339 at 0.005 to 1 mg/ml by agar diffusion assay; assay type: functional, organism-based; settings: dose 0.005-1 mg/ml
Micrococcus luteus [2] = test: Antibacterial activity against Micrococcus luteus at 0.005 to 1 mg/ml by agar diffusion assay; assay type: functional, organism-based; settings: dose 0.005-1 mg/ml
Staphylococcus aureus [3] = test: Antibacterial activity against Staphylococcus aureus Sau 16339 assessed as inhibition zone at 0.5 mg/ml by agar diffusion assay; assay type: functional; settings: read-out: IZ
Micrococcus luteus [4] = test: Antibacterial activity against Micrococcus luteus assessed as inhibition zone at 0.5 mg/ml by agar diffusion assay; assay type: functional; settings: read-out: IZ

## COC(=O)/C=C/C(C)=C/C=C/C(C)=C/C=C/c1ccccc1
Staphylococcus aureus [1]
  Activity: inactive
Micrococcus luteus [2]
  Activity: inactive

## CC(/C=C/C=C(C)/C=C/C(=O)N[C@@H]1O[C@H](CO)[C@@H](O)[C@H](O[C@@H]2O[C@H](CO)[C@@H](O)[C@H](O[C@@H]3O[C@H](CO[C@@H]4O[C@H](CO)[C@@H](O)[C@H](O)[C@H]4O)[C@@H](O)[C@H](O)[C@H]3O)[C@H]2O)[C@H]1O)=C\C=C\c1ccccc1
Staphylococcus aureus [3]
  zone of inhibition at 500 µg/mL: 4 mm
Micrococcus luteus [2]
  Activity: inactive

## COC(=O)/C=C/C=C/C=C/C(C)=C/C=C/c1ccccc1
Staphylococcus aureus [1]
  Activity: inactive
Micrococcus luteus [2]
  Activity: inactive

## CC(/C=C/C=C/C=C/C(=O)N[C@@H]1O[C@H](CO)[C@@H](O)[C@H](O[C@@H]2O[C@H](CO)[C@@H](O)[C@H](O[C@@H]3O[C@H](CO[C@@H]4O[C@H](CO)[C@@H](O)[C@H](O)[C@H]4O)[C@@H](O)[C@H](O)[C@H]3O)[C@H]2O)[C@H]1O)=C\C=C\c1ccccc1
Staphylococcus aureus [1]
  Activity: inactive
Micrococcus luteus [4]
  zone of inhibition at 500 µg/mL: 3 mm

## CN(C)[C@@H]1C(O)=C(C(N)=O)C(=O)[C@@]2(O)C(O)=C3C(=O)c4c(O)cccc4[C@@](C)(O)[C@H]3C[C@@H]12 [TETRACYCLINE]
Micrococcus luteus [4]
  zone of inhibition at 500 µg/mL: 15 mm
Staphylococcus aureus [3]
  zone of inhibition at 500 µg/mL: 12 mm

## CC(/C=C/C(=O)N[C@@H]1O[C@H](CO)[C@@H](O)[C@H](O[C@@H]2O[C@H](CO)[C@@H](O)[C@H](O[C@@H]3O[C@H](CO[C@@H]4O[C@H](CO)[C@@H](O)[C@H](O)[C@H]4O)[C@@H](O)[C@H](O)[C@H]3O)[C@H]2O)[C@H]1O)=C\C=C\c1ccccc1
Staphylococcus aureus [1]
  Activity: inactive
Micrococcus luteus [2]
  Activity: inactive
